Experiment [1] concerns L1210 cells. As to the kind of experiment: L1210 murine leukemia cell growth inhibition in vitro. Format: cell-based. The following applies: Mus musculus, 72 h. How it is done:
Another test protocol uses L1210 cells, a murine leukemia cell line, grown in RPMI 1640 supplemented with 5% fetal bovine serum and gentamicin ([…]). Drug dilutions are prepared in the appropriate solvent and 20 µl of each dilution are added to 24-well Linbro tissue culture plates, followed by the addition of 2.0 ml of cell suspension containing 3 x 10^4 cells per ml. Solvent and medium controls are included in each test. After incubation at 37°C forthree days in 5% C02, the contents of each well are removed and the cells counted in a ZBI Coulter counter. Percent growth are calculated relative to the controls and the levels of drug activity are expressed as ID50 in moles per liter.

For experiment [2], the system named is lymphocytic leukemia P388. The experiment is described as follows: in vivo lymphocytic leukemia P388 test. More on the design: species or system mice. The note with it: Mus musculus, P388, ip, 120 h, read-out: P388 in vivo T/C × 100; for response vs control in vivo at 6.25 mg/kg: Dose 6.25 mg/kg intraperitoneally once daily for five days; for response vs control in vivo at 12.5 mg/kg: Dose 12.50 mg/kg intraperitoneally once daily for five days; for response vs control in vivo at 25 mg/kg: Dose 25.00 mg/kg intraperitoneally once daily for five days; for response vs control in vivo at 50 mg/kg: Dose 50.00 mg/kg intraperitoneally once daily for five days; for response vs control in vivo at 3.12 mg/kg: Dose 3.12 mg/kg intraperitoneally once daily for five days. As to the method:
Another test protocol is the in vivo lymphocytic leukemia P388 test. The animals used are either male or female CD2F, mice. There are six or seven animals per test group. The tumor transplant is by intraperitoneal injection of dilute ascitic fluid containing cells of lymphocytic leukemia P388. The test compounds are administered intraperitoneally once daily for five consecutive days at various doses following tumor inoculation. The animals are weighed and survivors are recorded on a regular basis for 30 days. A compound is designated "toxic" if, at a given dose, all animals died prior to four days after the first injection of drug. A ratio of survival time for treated (T)/control (C) animals is calculated. A criterion for efficacy is a ratio T/C times 100 greater than or equal to 125. See Cancer Chemotherapy Reports, Part 3, 3; 1 (1972) for a comprehensive discussion of the protocol.

Experiment [3] deals with Streptococcus faecalis 05045. As to the kind of experiment: in vitro antibacterial/antifungal (ABF) agar-disk diffusion test. The class given is cell-based. The following applies: Enterococcus faecalis, AM-09 medium, read-out: ABF Zone Diameter (cont. in mg/ml) S. Fae-calis; for zone of inhibition at 3000 µg/mL: 3 mg/ml. How it is done:
(§1) Still another test protocol is the in vitro antibacterial/antifungal (ABF) test. Compounds are tested for antimicrobial activity in an agar-disk diffusion assay, a standard microbiological technique for testing antibiotics'. After incubation of each culture with a test compound, a zone of inhibition is determined. The zone diameter (mm) of active compounds ranges from a minimum of 13.5 mm to as high as 60 mm, with a greater diameter reflecting higher activity. For convenience, values are reported for two gram-negative bacteria (Aerobacter aerogenes 0126 and Escherichia coli 04863), two gram-positive bacteria (Bacillus subtilis 04555 and Streptococcus faecalis 05045 utilizing AM-09 medium), and one mycelial fungus (Penicillium avellaneum M2988).
On the technique in general: In agar diffusion tests the substance spreads into inoculated agar from a disc or well.

Experiment [4] has as its system Escherichia coli 04863. The experiment is described as above. The note with it: read-out: ABF Zone Diameter (cont. in mg/ml) E. Coli; for zone of inhibition at 3000 µg/mL: 3 mg/ml. The class given is cell-based. As to the method: as §1
For experiment [5], the system named is Aerobacter aerogenes 0126. The description is as above. Format: cell-based. The note with it: Klebsiella aerogenes, read-out: ABF Zone Diameter (cont. in mg/ml) A. Aero-genes; for zone of inhibition at 3000 µg/mL: 3 mg/ml. As to the method: as §1
Experiment [6] relates to Bacillus subtilis 04555. Described as above. The note with it: read-out: ABF Zone Diameter (cont. in mg/ml) B. Sub-tilis; for zone of inhibition at 3000 µg/mL: 3 mg/ml. Format: cell-based. How it is done:
as §1

Experiment [7] relates to Penicillium avellaneum M2988. Described as above. The class given is cell-based. The note with it: Hamigera avellanea, 3 mg/ml, read-out: ABF Zone Diameter (cont. in mg/ml) P. Avell-aneum. As to the method:
as §1

The subject of experiment [8] is HCT-8 cells. As to the kind of experiment: in vitro proliferating human colon adenocarcinoma (HCA) cell screen. Format: cell-based. As to the method: One test protocol is the in vitro proliferating human colon adenocarcinoma (HCA) cell screen. In this test, HCT-8 cells (HCA cell line received from Yale University) are trypsinized using trypsin-EDTA. A single cell suspension is achieved by passing the cells through a 26 gauge needle with a 20 cc syringe. A cell suspension is prepared using RPMI 1640 + 10% FCS + 50) g/ml gentamicin sulfate with a cell concentration of approximately 30,000 cells/ml. The cell suspension is dispensed in Linbro 24-well plates; 1 ml/well. The plates are incubated for approximately 48 hours at 37°C in a 5% C02 atmosphere. At this time test compounds are added in the appropriate concentration. Five µl of the 200 µg/ml stock solution is added to each well in primary test. Ten µl of the appropirate dilution is added to each well for a titration test. The plates are re-incubated an additional 60 to 65 hours at 37°C in a 5% C02 atmosphere. The cells are lysed using a mix of cationic surfactant, glacial acetic acid, and sodium chloride. Two ml of the lysed cell suspension from each well is added to 8 ml of diluent. The number of nuclei is determined using a Coulter counter (ZBI model), and a percent growth for each drug concentration is calculated. From this, an ID50 molar concentration of a compound (that results in 50% inhibition of growth) is determined.

The mark [9] stands for this setting: Table 2, three days incubation, read-out: L1210 in vitro IC50.
Where [10] appears, read: Table 2, 60 to 65 hours with compound, read-out: HCA—3 in vitro IC50.
Setting [11] is: Table 1, three days incubation, 50% inhibition of growth, read-out: L1210 in vitro ID50.
Setting [12] is: Table 1, 60 to 65 hours with compound, 50% inhibition of growth, read-out: HCA—3 in vitro ID50.

SMILES strings stand for the structures. pIC50: −log10 of the molar value. Counter-ions that a name gives are not always drawn. Like-named read-outs stand apart in the source and are kept apart here. Some results are limits rather than exact numbers.

In the case of `CCN(CC)CCn1nc2c3c(c(NCCNCCO)ccc31)Sc1c(O)ccc(O)c1-2` [2-[2-(Diethylamino)ethyl]-5-[[2-[(2-hydroxyethyl)amino]ethyl]amino]-2H[1]benzothiopyrano[4,3,2-cdlindazole-7,10-diol], the pIC50 in experiment [1] (setting [9]) and in experiment [8] (setting [10]) was less than 5.82 throughout. Besides, the response vs control in vivo at 6.25 mg/kg in experiment [2] was found to be 123%. In addition, the response vs control in vivo at 12.5 mg/kg in experiment [2] turned out to be 118%. The response vs control in vivo at 25 mg/kg in experiment [2] came out at 121%. In addition, the response vs control in vivo at 50 mg/kg in experiment [2] stood at 138%. Moreover, the zone of inhibition at 500 µg/mL in experiment [3] (0.5 mg/ml) came out at 15 mm. Further, the zone of inhibition at 3000 µg/mL in experiment [4] turned out to be 0 mm; in experiment [5], 14 mm; in experiment [6] it was 0 mm; in experiment [7] it was 0 mm.

In the case of `CCN(CC)CCn1nc2c3c(c(N)ccc31)Sc1c(O)ccc(O)c1-2` [CH2CH2N(C2H5)2 / NH2 / 7,10-(OH)2, 5-amino-2-[2-(diethylamino)ethyl]-2H[1]-benzothiopyrano[4;3,2-cd]indazole-7,10-diol], the pIC50 in experiment [1] (setting [9]) and in experiment [8] (setting [10]) was less than 5.66 each time. In addition, the zone of inhibition at 3000 µg/mL in experiment [3] is 19 mm; in experiment [4], 0 mm; in experiment [5], 0 mm; in experiment [6], 0 mm; in experiment [7], 0 mm.

As to `CCN(CC)CCn1nc2c3c(c(NCCCN)ccc31)Sc1ccccc1-2` [CH2CH2N(C2H5)2 / NHCH2CH2CH2NH2], the pIC50 in experiment [1] (setting [11]) was 6.54. In experiment [2], the response vs control in vivo at 3.12 mg/kg came to 132%, the response vs control in vivo at 6.25 mg/kg was 142%, the response vs control in vivo at 12.5 mg/kg amounted to 154% and the response vs control in vivo at 25 mg/kg amounted to 169%. The pIC50 in experiment [8] (setting [12]) was 6.06.

For `CCN(CC)CCn1nc2c3c(c(NCCN)ccc31)Sc1ccc(OC)cc1-2` [CH2CH2N(C2H5)2 / NHCH2CH2NH2 / 9-OCH3], the results for the pIC50 in experiment [1] (setting [9]) and in experiment [8] (setting [10]) were 6.68 and 6.54, respectively. Further, in experiment [2], the response vs control in vivo at 12.5 mg/kg worked out at 177%.

For the compound `CCN(CC)CCn1nc2c3c(c(NC(=O)CCl)ccc31)Sc1ccccc1-2` [CH2CH2N(C2H5)2 / NHCOCH2Cl, 2-Chloro-N-[2-[2-(diethylamino)ethyl]-2H[1]benzothiopyrano[4,3,2-cd]indazol-5-yl]acetamide], the pIC50 was 6.72 in experiment [1] (setting [11]) and 6.42 in experiment [8] (setting [12]). In addition, the response vs control in vivo at 25 mg/kg in experiment [2] was found to be 124%. In addition, in experiment [2], the response vs control in vivo at 50 mg/kg was 165%.

Consider `CCN(CC)CCn1nc2c3c(c(NCCN4CCOC4=O)ccc31)Sc1ccc(O)cc1-2` [CH2CH2N(C2H5)2 / [drawing] / 9-OH, 3-[2-[[2-[2-(diethylamino)ethyl]-9-hydroxy-2H[1]benzothiopyrano[4,3,2-cd]indazol-5-yl]amino]ethyl]-2-oxazolidinone], for which the pIC50 in experiment [1] (setting [9]) is 8.26; in experiment [8] (setting [10]) it was 7.62. Besides, in experiment [2], the response vs control in vivo at 12.5 mg/kg amounted to 175%.

Regarding `NCCn1nc2c3c(c(NCCNCCO)ccc31)Sc1ccccc1-2` [CH2CH2NH2 / NHCH2NHCH2CH2OH, 2-[[2-[[2-(2-aminoethyl)-2H[1]benzothiopyrano[4,3,2-cd]indazol-5-yl]amino]ethyl]amino]ethanol], the pIC50 in experiment [1] (setting [11]) was 7.62; in experiment [8] (setting [12]), 7.06. The zone of inhibition at 3000 µg/mL in experiment [3], in experiment [4] and in experiment [7] was 0 mm in each case. Besides, the zone of inhibition at 500 µg/mL in experiment [5] (0.5 mg/ml) and in experiment [6] (0.5 mg/ml) was 15 mm in each case.

Regarding `NCCn1nc2c3c(c([N+](=O)[O-])ccc31)Sc1ccccc1-2` [CH2CH2NH2 / NO2 / 199—203, 5-Nitro-2H[1]benzothiopyrano[4,3,2-cd]indazole-2-ethanamine], the zone of inhibition at 3000 µg/mL in experiment [3] and in experiment [7] was 0 mm in each case. The zone of inhibition at 100 µg/mL in experiment [4] (0.1 mg/ml) was 15 mm; in experiment [5] (0.1 mg/ml) it was 18 mm; in experiment [6] (0.1 mg/ml) it was 17 mm. For the same compound, in experiment [8] (setting [12]), the pIC50 is 6.70.

`CCNCCn1nc2c3c(c([N+](=O)[O-])ccc31)Sc1ccccc1-2` [CH2CH2NHC2H5 / NO2 / C17H16N4O2S·HCl]: the pIC50 in experiment [1] (setting [11]) was 7.62; in experiment [8] (setting [12]) it was 6.85. The response vs control in vivo at 12.5 mg/kg in experiment [2] was 187%.

As for `CCNCCn1nc2c3c(c(N)ccc31)Sc1ccccc1-2` [CH2CH2NHC2H5 / NO2 / C17H18N4S·2HCl], the pIC50 in experiment [1] (setting [11]) was 7.15; in experiment [8] (setting [12]), 6.52. Besides, in experiment [2], the response vs control in vivo at 12.5 mg/kg amounted to 188%.

`O=C1OCCN1CCNc1ccc2c3c(nn2CCNCCO)-c2ccccc2Sc13` [CH2CH2NHCH0H2OH /]: the pIC50 in experiment [1] (setting [11]) was 6.24; in experiment [8] (setting [12]) it was 5.85. In addition, the values for the zone of inhibition at 1000 µg/mL in experiment [3] (1 mg/ml), in experiment [5] (1 mg/ml) and in experiment [6] (1 mg/ml) were 17 mm, 14 mm and 16 mm, respectively. Further, the zone of inhibition at 3000 µg/mL is 15 mm in experiment [4] and 0 mm in experiment [7].

In the case of `CCN(CC)CCNc1ccc2c3c(nn2CCNCCO)-c2ccccc2Sc13` [CH2CH2NHCH2CH2OH / NHCH2CH2N(C2H5)2, 2-[[2-[5-[[2-(Diethylamino)ethyl]amino]-2H[1]benzothiopyrano[4,3,2-cd]indazol-2-yl]ethyl]amino]ethanol], the pIC50 in experiment [1] (setting [11]) was 6.62. For the same compound, in experiment [2], the response vs control in vivo at 3.12 mg/kg was determined as 134%, the response vs control in vivo at 6.25 mg/kg came to 137%, the response vs control in vivo at 12.5 mg/kg amounted to 135% and the response vs control in vivo at 25 mg/kg was 147%. The pIC50 in experiment [8] (setting [12]) is 6.35.
